Results published in paper PMC11110727, “Exploiting thiol-functionalized benzosiloxaboroles for achieving diverse substitution patterns – synthesis, characterization and biological evaluation of promising antibacterial agents” (RSC Medicinal Chemistry, 2024).
≈ marks a conversion by molar mass, not a printed value.

Key:
P. mirabilis ATCC 12453 = assay: Antibacterial activity: MIC/MBC, MIC with PAβN, disc-diffusion; type: cell-based, Proteus mirabilis; conditions: P. mirabilis ATCC 12453; for MIC: Proteus mirabilis, ATCC12453, read-out: MIC; for diameter of inhibition zone: (-) = zone not observed, paper discs 9 mm; for -fold reduction of MIC in the presence of PAβN: PAβN 20 μg mL^−1, MHB + 1 mM MgSO4
Procedure: (§1) Direct antimicrobial activity was determined against the following standard strains: (1) Gram-positive cocci: methicillin-sensitive Staphylococcus aureus ATCC 6538P (MSSA), methicillin-resistant S. aureus subsp. aureus ATCC 43300 (MRSA), S. epidermidis ATCC 12228, Enterococcus faecium ATCC 6057, E. faecalis ATCC 29212, Bacillus subtilis ATCC 6633; (2) Gram-negative bacteria from Enterobacteriales order: Klebsiella pneumoniae ATCC 13883, Escherichia coli ATCC 25922, Enterobacter cloacae DSM 6234, Proteus mirabilis ATCC 12453, Serratia marcescens ATCC 13880; (3) Gram-negative non-fermentative rods: Acinetobacter baumannii ATCC 19606, Pseudomonas aeruginosa ATCC 27853, Stenotrophomonas maltophilia ATCC 12714, S. maltophilia ATCC 13637, Burkholderia cepacia ATCC 25416, Bordetella bronchiseptica ATCC 4617; (4) yeasts: Candida albicans ATCC 90028, C. krusei ATCC 6258, C. parapsilosis ATCC 22019, C. tropicalis (Castellani) Berkhout ATCC 750, C. tropicalis IBA 171, C. guilliermondii IBA 155, and Saccharomyces cerevisiae ATCC 9763. Moreover, 5 clinical strains of methicillin-resistant S. aureus were also included: NMI 664 K, NMI 1576 K, NMI 1712 K, NMI 1991 K, and NMI 2541 K. All strains were stored at −80 °C. Prior to testing, each bacterial strain was subcultured twice on tryptic soy agar TSA (bioMerieux) medium and yeast strains on Sabouraud dextrose agar (bioMerieux) for 24–48 h at 30 °C to ensure viability. The antimicrobial activity was evaluated as previously described[26] by the disc-diffusion method and the MIC determination assays according to the EUCAST (ref. [71] and [72]) and CLSI (ref. [53] and [73]) recommendations. Assessment of bactericidal (MBC) and fungicidal (MFC) activities was performed according to the CLSI recommendations.[54,74] […] The new benzosiloxaboroles were dissolved in DMSO (Sigma).
(§2) Considering that the MDR efflux pumps often contribute to Gram-negative rod resistance, the MIC values of studied agents, with or without the pump inhibitor, PAβN (20 μg mL^−1) (Sigma), were determined.[75] The MIC was determined using Mueller–Hinton II broth medium (MHB) (Becton Dickinson) by the broth microdilution method, according to the CLSI guideliness.[53] To minimize the influence of PAβN on the destabilization of bacterial cell covers, the tests were conducted in the presence of 1 mM MgSO4 (Sigma).[76] At least a 4-fold reduction in the MIC value after the addition of PAβN was considered significant.[56,77]

B. cepacia ATCC 25416 = assay: Antibacterial activity: MIC/MBC, disc-diffusion; type: cell-based, Burkholderia cepacia; conditions: Burkholderia cepacia, ATCC25416; B. cepacia ATCC 25416; read-out: MIC
Procedure: as §1, §2

E. cloacae DSM 6234 = assay: Antibacterial activity: MIC/MBC, MIC with PAβN, disc-diffusion; type: cell-based, Enterobacter cloacae; conditions: E. cloacae DSM 6234; for MIC: Enterobacter cloacae, DSM6234, read-out: MIC; for -fold reduction of MIC in the presence of PAβN: PAβN 20 μg mL^−1, MHB + 1 mM MgSO4
Procedure: as §1, §2

C. krusei ATCC 6258 = assay: Antifungal activity: MIC/MFC, disc-diffusion; type: cell-based; conditions: for MIC: read-out: MIC
Procedure: as §1

S. marcescens ATCC 13880 = assay: Antibacterial activity: MIC/MBC, MIC with PAβN, disc-diffusion; type: cell-based, Serratia marcescens; conditions: S. marcescens ATCC 13880; for MIC: Serratia marcescens, ATCC13880, read-out: MIC; for diameter of inhibition zone: (-) = zone not observed, paper discs 9 mm; for -fold reduction of MIC in the presence of PAβN: PAβN 20 μg mL^−1, MHB + 1 mM MgSO4
Procedure: as §1, §2

E. coli ATCC 25922 = assay: as above; type: cell-based, Escherichia coli; conditions: E. coli ATCC 25922; for MIC / MBC: Escherichia coli, ATCC25922; for MIC: read-out: MIC; for diameter of inhibition zone: (-) = zone not observed, paper discs 9 mm
Procedure: as §1, §2

[1] = system: S. aureus ATCC 43300 MRSA; assay: Antibacterial activity: MIC/MBC determination and disc-diffusion; type: cell-based; conditions: Staphylococcus aureus, S. aureus ATCC 43300 MRSA; for MBC: read-out: MBC (first MBC where Eagle effect); for MIC: read-out: MIC
Procedure: (§3) Direct antimicrobial activity was determined against the following standard strains: (1) Gram-positive cocci: methicillin-sensitive Staphylococcus aureus ATCC 6538P (MSSA), methicillin-resistant S. aureus subsp. aureus ATCC 43300 (MRSA), S. epidermidis ATCC 12228, Enterococcus faecium ATCC 6057, E. faecalis ATCC 29212, Bacillus subtilis ATCC 6633; (2) Gram-negative bacteria from Enterobacteriales order: Klebsiella pneumoniae ATCC 13883, Escherichia coli ATCC 25922, Enterobacter cloacae DSM 6234, Proteus mirabilis ATCC 12453, Serratia marcescens ATCC 13880; (3) Gram-negative non-fermentative rods: Acinetobacter baumannii ATCC 19606, Pseudomonas aeruginosa ATCC 27853, Stenotrophomonas maltophilia ATCC 12714, S. maltophilia ATCC 13637, Burkholderia cepacia ATCC 25416, Bordetella bronchiseptica ATCC 4617; (4) yeasts: Candida albicans ATCC 90028, C. krusei ATCC 6258, C. parapsilosis ATCC 22019, C. tropicalis (Castellani) Berkhout ATCC 750, C. tropicalis IBA 171, C. guilliermondii IBA 155, and Saccharomyces cerevisiae ATCC 9763. Moreover, 5 clinical strains of methicillin-resistant S. aureus were also included: NMI 664 K, NMI 1576 K, NMI 1712 K, NMI 1991 K, and NMI 2541 K. All strains were stored at −80 °C. Prior to testing, each bacterial strain was subcultured twice on tryptic soy agar TSA (bioMerieux) medium and yeast strains on Sabouraud dextrose agar (bioMerieux) for 24–48 h at 30 °C to ensure viability. The antimicrobial activity was evaluated as previously described[26] by the disc-diffusion method and the MIC determination assays according to the EUCAST (ref. [71] and [72]) and CLSI (ref. [53] and [73]) recommendations. Assessment of bactericidal (MBC) and fungicidal (MFC) activities was performed according to the CLSI recommendations.[54,74] The following reference agents were used: fluconazole (in the case of fungi), linezolid (for Gram-positive bacteria), and nitrofurantoin (for Gram-negative rods). The new benzosiloxaboroles were dissolved in DMSO (Sigma).

E. faecium ATCC 6057 = assay: as above; type: cell-based; conditions: Enterococcus faecium, ATCC6057; E. faecium ATCC 6057; read-out: MIC
Procedure: as §3

[2] = system: S. maltophilia ATCC 12714; assay: Antibacterial activity: MIC/MBC, MIC with PAβN, disc-diffusion; type: cell-based, Stenotrophomonas maltophilia; conditions: S. maltophilia ATCC 12714; for MIC: read-out: MIC; for diameter of inhibition zone: (-) = zone not observed, paper discs 9 mm
Procedure: as §1, §2

[3] = system: S. maltophilia ATCC 13637; assay: as above; type: cell-based, Stenotrophomonas maltophilia; conditions: S. maltophilia ATCC 13637; for MIC / MBC: Stenotrophomonas maltophilia, ATCC13637; for MIC: read-out: MIC; for diameter of inhibition zone: (-) = zone not observed, paper discs 9 mm
Procedure: as §1, §2

[4] = Stenotrophomonas maltophilia, ATCC12714
[5] = PAβN 20 μg mL^−1, MHB + 1 mM MgSO4

| Compound | MIC (P. mirabilis ATCC 12453) | MIC (B. cepacia ATCC 25416) | MIC (E. cloacae DSM 6234) | MIC (C. krusei ATCC 6258; Pichia kudriavzevii, ATCC6258) | MIC (S. marcescens ATCC 13880) | MIC (E. coli ATCC 25922) | MBC [1] | MIC [1] | MIC (E. faecium ATCC 6057) | MIC [2, 4] | MIC [3] | diameter of inhibition zone (P. mirabilis ATCC 12453) | -fold reduction of MIC in the presence of PAβN (P. mirabilis ATCC 12453) | -fold reduction of MIC in the presence of PAβN (E. cloacae DSM 6234) | diameter of inhibition zone (S. marcescens ATCC 13880) | -fold reduction of MIC in the presence of PAβN (S. marcescens ATCC 13880) | diameter of inhibition zone (E. coli ATCC 25922) | MBC (E. coli ATCC 25922) | diameter of inhibition zone [3] | MBC [3] | further results |
| --- | --- | --- | --- | --- | --- | --- | --- | --- | --- | --- | --- | --- | --- | --- | --- | --- | --- | --- | --- | --- | --- |
| C[Si]1(C)OB(O)c2cc(F)c(SCCC(=O)Nc3ncccn3)c(F)c21 [Compound 9, 3-((5,7-Difluoro-3-hydroxy-1,1-dimethyl-1,3-dihydrobenzo[c][1,2,5]oxasilaborol-6-yl)thio)-N-(pyrimidin-2-yl)propanamide] | > 400 µg/mL | > 400 µg/mL | > 400 µg/mL | > 400 µg/mL | > 400 µg/mL | > 400 µg/mL | 400 µg/mL (≈ 1010 µM) | 50 µg/mL (≈ 126 µM) | 200 µg/mL (≈ 506 µM) | > 400 µg/mL | > 400 µg/mL |  |  |  |  |  |  |  |  |  |  |
| C[Si]1(C)OB(O)c2cc(F)c(SCCC(=O)Nc3cnccn3)c(F)c21 [Compound 10, 3-((5,7-Difluoro-3-hydroxy-1,1-dimethyl-1,3-dihydrobenzo[c][1,2,5]oxasilaborol-6-yl)thio)-N-(pyrazin-2-yl)propanamide] | > 400 µg/mL | > 400 µg/mL | > 400 µg/mL | > 400 µg/mL | > 400 µg/mL | > 400 µg/mL | 400 µg/mL (≈ 1010 µM) | 50 µg/mL (≈ 126 µM) | 100 µg/mL (≈ 253 µM) | > 400 µg/mL | > 400 µg/mL |  |  |  |  |  |  |  |  |  |  |
| Cc1cc(NC(=O)CCSc2c(F)cc3c(c2F)[Si](C)(C)OB3O)no1 [Compound 11, 3-((5,7-Difluoro-3-hydroxy-1,1-dimethyl-1,3-dihydrobenzo[c][1,2,5]oxasilaborol-6-yl)thio)-N-(5-methylisoxazol-3-yl)propanamide] | > 400 µg/mL | > 400 µg/mL | > 400 µg/mL | > 400 µg/mL | > 400 µg/mL | > 400 µg/mL | 400 µg/mL (≈ 1000 µM) | 50 µg/mL (≈ 126 µM) | 200 µg/mL (≈ 502 µM) | > 400 µg/mL | > 400 µg/mL |  |  |  |  |  |  |  |  |  |  |
| C[Si]1(C)OB(O)c2cc(F)c(SC3CC(=O)NC3=O)c(F)c21 (stereo not shown) [Compound 12, 3-((5,7-Difluoro-3-hydroxy-1,1-dimethyl-1,3-dihydrobenzo[c][1,2,5]oxasilaborol-6-yl)thio)pyrrolidine-2,5-dione] | > 400 µg/mL | > 400 µg/mL | > 400 µg/mL | > 400 µg/mL | 200 µg/mL (≈ 583 µM) | 50 µg/mL (≈ 146 µM) | 200 µg/mL (≈ 583 µM) | 12.5 µg/mL (≈ 36.4 µM) | 12.5 µg/mL (≈ 36.4 µM) | 200 µg/mL (≈ 583 µM) | 50 µg/mL (≈ 146 µM) | 14 mm | 4 -fold | 8 -fold | 28 mm | 2 -fold | 17 mm | 200 µg/mL (≈ 583 µM) | 13 mm | 100 µg/mL (≈ 291 µM) | diameter of inhibition zone [2]: 13 mm; -fold reduction of MIC in the presence of PAβN [2, 5]: 2 -fold |
| C[Si]1(C)OB(O)c2ccc(SC3CC(=O)NC3=O)c(F)c21 (stereo not shown) [Compound 13, 3-((7-Fluoro-3-hydroxy-1,1-dimethyl-1,3-dihydrobenzo[c][1,2,5]oxasilaborol-6-yl)thio)pyrrolidine-2,5-dione] | 400 µg/mL (≈ 1230 µM) | > 400 µg/mL | 400 µg/mL (≈ 1230 µM) | > 400 µg/mL | 100 µg/mL (≈ 308 µM) | 25 µg/mL (≈ 76.9 µM) |  | 25 µg/mL (≈ 76.9 µM) | 12.5 µg/mL (≈ 38.4 µM) | 50 µg/mL (≈ 154 µM) | 25 µg/mL (≈ 76.9 µM) | 18 mm | 4 -fold | 4 -fold | 29 mm | 2 -fold | 19 mm | 50 µg/mL (≈ 154 µM) | 19 mm | 50 µg/mL (≈ 154 µM) | diameter of inhibition zone [2]: 17 mm; MBC [2, 4]: 200 µg/mL (≈ 615 µM) |
| C[Si]1(C)OB(O)c2cc(F)c(SC3CC(=O)N(c4ccc(F)cc4)C3=O)c(F)c21 (stereo not shown) [Compound 14, 3-((5,7-Difluoro-3-hydroxy-1,1-dimethyl-1,3-dihydrobenzo[c][1,2,5]oxasilaborol-6-yl)thio)-1-(4-fluorophenyl)pyrrolidine-2,5-dione] | > 200 µg/mL | > 200 µg/mL | > 200 µg/mL | 12.5 µg/mL (≈ 28.6 µM) | > 200 µg/mL | > 200 µg/mL |  | 50 µg/mL (≈ 114 µM) | 50 µg/mL (≈ 114 µM) | 100 µg/mL (≈ 229 µM) | 25 µg/mL (≈ 57.2 µM) |  |  |  |  |  |  |  | 11 mm | 100 µg/mL (≈ 229 µM) | diameter of inhibition zone (C. krusei ATCC 6258; C. krusei ATCC 6258, (-) = zone not observed, paper discs 9 mm): 30 mm; MFC (C. krusei ATCC 6258; Pichia kudriavzevii, ATCC6258, C. krusei ATCC 6258): 100 µg/mL (≈ 229 µM); -fold reduction of MIC in the presence of PAβN (E. coli ATCC 25922; [5]): 2 -fold |
